Patent US9029337B2, “Modulation of factor 7 expression” (Isis Pharmaceuticals, Inc., priority 2007, dated 2015)
Strand notation (5' to 3'): a small letter for the sugar, then the base; units joined by * are phosphorothioate-linked, units joined directly phosphodiester-linked; [ ] holds rarer units or linkages, { } end groups; capitals alone tell only the bases. e = 2'-O-(2-methoxyethyl) (MOE); [5mC] = 5-methylcytosine; d = 2'-deoxy (DNA)

Tested on: human Factor 7 mRNA
Assay: Antisense inhibition of human Factor 7 mRNA in HepB3 cells, 50 nM antisense oligonucleotide, lipofectin
Assay type: cell-based
Conditions: for % Inhibition: lipofectin, approximately 24 hours; for % Inhibition of human Factor 7 mRNA levels: gapmers targeted to nucleobases 4868 to 4899 of SEQ ID NO: 1, Table 8
Experimental: Antisense oligonucleotides targeted to a Factor 7 nucleic acid were tested for their effects on Factor 7 mRNA in vitro. Cultured HepB3 cells at a density of 4,000 cells per well were transfected using lipofectin reagent with 50 nM antisense oligonucleotide. After a treatment period of approximately 24 hours, RNA was isolated from the cells and Factor 7 mRNA levels were measured by real-time RT-PCR, as described herein. Factor 7 mRNA levels were adjusted according to total RNA content as measured by RIBOGREEN®. Results are presented as percent inhibition of Factor 7, relative to untreated control cells.
(§1) Antisense oligonucleotides targeted to a Factor 7 nucleic acid were designed and tested for their effects on Factor 7 mRNA in vitro. Certain antisense oligonucleotides from Table 3 were also retested for their effects on Factor 7 mRNA in vitro. Cultured HepB3 cells at a density of 4,000 cells per well were transfected using lipofectin reagent with 50 nM antisense oligonucleotide. After a treatment period of approximately 24 hours, RNA was isolated from the cells and Factor 7 mRNA levels were measured by real-time RT-PCR, as described herein. Human Factor 7 primer probe set RTS 2927 was used to measure mRNA levels. Factor 7 mRNA levels were adjusted according to total RNA content as measured by RIBOGREEN®. Results are presented as percent inhibition of Factor 7, relative to untreated control.
as §1, with “tested” for “tested for their effects on Factor 7 mRNA in vitro. Certain antisense oligonucleotides from Table 3 were also retested”
These gapmers were designed by creating gapmers shifted slightly upstream and downstream (i.e. “microwalk”) of the original gapmers from Table 7. Gapmers were also created with various motifs, e.g. 5-10-5 MOE, 3-14-3 MOE, and 2-13-5 MOE. These gapmers were tested in vitro. Cultured HepB3 cells at a density of 4,000 cells per well were transfected using lipofectin reagent with 50 nM antisense oligonucleotide. After a treatment period of approximately 24 hours, RNA was isolated from the cells and Factor 7 mRNA levels were measured by real-time RT-PCR. Factor 7 mRNA levels were adjusted according to total RNA content, as measured by RIBOGREEN®. Results are presented as percent inhibition of Factor 7, relative to untreated control cells.

[1] = oligonucleotides targeted to nucleobases 11830 to 11869 of SEQ ID NO: 1 (Table 9)
[2] = oligonucleotides targeted to nucleobases 14707 to 14732 of SEQ ID NO: 1 (Table 11)
[3] = Table 1, 50 nM, relative to untreated control cells
[4] = 50 nM antisense oligonucleotide, Factor 7 mRNA by real-time RT-PCR (RTS 2927), relative to untreated control

With “422237 (antisense e[5mC]*eA*dA*dT*dG*dG*dT*d[5mC]*dA*dG*dG*dG*d[5mC]*dT*dG*eG*eT*eT*eT*eT) [compound 422237]” the “% Inhibition (human Factor 7 mRNA levels)” value [1] was 50%.

For “422200 (antisense e[5mC]*e[5mC]*eT*dG*dA*dG*dG*d[5mC]*d[5mC]*dA*dG*d[5mC]*dA*dG*dA*dT*d[5mC]*eA*e[5mC]*eG) [compound 422200]”, the “% Inhibition (human Factor 7 mRNA levels)” value [2] was 58%.

For “422207 (antisense e[5mC]*eA*e[5mC]*dA*d[5mC]*dA*dT*dG*dG*dA*dG*dT*d[5mC]*dA*dG*d[5mC]*dA*eT*e[5mC]*eG) [compound 422207]”, the “% Inhibition (human Factor 7 mRNA levels)” value (oligonucleotides targeted to nucleobases 15098 to 15122 of SEQ ID NO: 1 (Table 12)) was 41%.

In the case of “407647 (antisense eG*e[5mC]*eA*eG*e[5mC]*d[5mC]*dG*dT*dT*dT*dA*dT*dT*dG*dT*eG*eA*eA*eG*e[5mC]) [compound 407647]”, the “% Inhibition” value [3] is reported as 83%.

“407890 (antisense e[5mC]*eA*eG*eG*eG*dA*dG*d[5mC]*d[5mC]*d[5mC]*dG*dG*d[5mC]*d[5mC]*dG*e[5mC]*eA*eG*e[5mC]*eT) [compound 407890]” was tested, and the “% Inhibition” value [3] was 60%.

For “422225 (antisense eA*eG*eG*dA*dG*d[5mC]*d[5mC]*d[5mC]*dG*dA*dG*dT*dT*d[5mC]*dT*dG*d[5mC]*eA*eG*eG) [compound 422225]”, the “% Inhibition of human Factor 7 mRNA levels” value was 56%.

For “416491 (antisense eG*eA*eG*eA*eA*dG*dG*dG*dT*dT*dG*d[5mC]*dA*dG*dG*e[5mC]*eA*eG*eG*eA) [compound 416491]”, the “% Inhibition” value [4] was 2%.

For “407945 (antisense eA*eA*eT*e[5mC]*eA*dT*dG*dG*dG*d[5mC]*dA*dA*d[5mC]*d[5mC]*d[5mC]*eA*eG*eT*eG*eG) [compound 407945]”, the “% Inhibition” value [3] was 56%.

With “416470 (antisense eG*e[5mC]*eT*eT*eT*dT*dG*d[5mC]*dA*dG*d[5mC]*d[5mC]*dA*d[5mC]*dT*e[5mC]*eG*eA*eT*eG) [compound 416470]” the “% Inhibition” value [4] was 39%.

With “407922 (antisense eT*e[5mC]*eG*eA*e[5mC]*dG*d[5mC]*dA*dG*d[5mC]*d[5mC]*dT*dT*dG*dG*e[5mC]*eT*eT*eT*e[5mC]) [compound 407922]” the “% Inhibition” value [3] was 82%.

“416441 (antisense eA*eG*eA*eT*eA*dT*dA*dG*dG*dA*d[5mC]*dT*dG*dG*dA*eG*e[5mC]*eT*eG*eG) [compound 416441]” was tested, and the “% Inhibition” value [4] was 32%.

For “422089 (antisense eG*eT*e[5mC]*eA*eG*dG*dG*d[5mC]*dT*dG*dG*dT*dT*dT*dT*eG*eG*eA*eG*eG) [compound 422089]”, the “% Inhibition (human Factor 7 mRNA levels)” value [1] was 22%.

With “416539 (antisense eG*eA*e[5mC]*eA*eG*dA*dG*d[5mC]*d[5mC]*dT*dG*dA*dG*d[5mC]*dT*eT*eG*eG*e[5mC]*eA) [compound 416539]” the “% Inhibition” value [4] was 53%.

In the case of “416422 (antisense eA*eG*e[5mC]*eG*eA*d[5mC]*d[5mC]*d[5mC]*d[5mC]*dG*d[5mC]*d[5mC]*dT*dG*d[5mC]*eA*eG*e[5mC]*e[5mC]*eA) [compound 416422]”, the “% Inhibition” value [4] is reported as 8%.

With “403093 (antisense eG*eA*eG*eA*e[5mC]*d[5mC]*d[5mC]*dT*dG*dG*dT*dG*dT*dA*d[5mC]*eA*e[5mC]*e[5mC]*e[5mC]*e[5mC]) [compound 403093]” the “% Inhibition” value [3] was 75%.

With “422280 (antisense e[5mC]*eA*dG*d[5mC]*d[5mC]*dT*dG*dA*dG*dG*d[5mC]*d[5mC]*dA*dG*d[5mC]*eA*eG*eA*eT*e[5mC]) [compound 422280]” the “% Inhibition (human Factor 7 mRNA levels)” value [2] was 52%.

With “407614 (antisense eT*eG*e[5mC]*eA*eG*dT*dA*d[5mC]*dT*dG*d[5mC]*dT*d[5mC]*dA*d[5mC]*eA*eG*e[5mC]*e[5mC]*eG) [compound 407614]” the “% Inhibition” value [3] was 78%.

With “407633 (antisense eG*e[5mC]*eA*eG*eG*d[5mC]*dA*dG*dT*d[5mC]*d[5mC]*dT*dG*dG*dG*eT*e[5mC]*eA*eT*e[5mC]) [compound 407633]” the “% Inhibition” value [3] was 71%.

“422103 (antisense eG*e[5mC]*eT*eG*eA*dG*dG*dA*dG*dA*d[5mC]*dA*dA*dT*dG*eG*eT*e[5mC]*eA*eG) [compound 422103]” was tested, and the “% Inhibition (human Factor 7 mRNA levels)” value [1] was 38%.

For “407889 (antisense eT*e[5mC]*e[5mC]*eT*eG*dG*dG*dT*dT*dA*d[5mC]*dG*dA*dA*dG*eA*e[5mC]*eT*eG*e[5mC]) [compound 407889]”, the “% Inhibition” value [3] was 54%.

With “416561 (antisense eG*eG*eT*eG*eT*dG*dT*dT*d[5mC]*d[5mC]*d[5mC]*dA*dT*dA*dA*eA*eA*e[5mC]*eT*eT) [compound 416561]” the “% Inhibition” value [4] was 16%.

“422279 (antisense eA*eG*d[5mC]*d[5mC]*dT*dG*dA*dG*dG*d[5mC]*d[5mC]*dA*dG*d[5mC]*dA*eG*eA*eT*e[5mC]*eA) [compound 422279]” was tested, and the “% Inhibition (human Factor 7 mRNA levels)” value [2] was 56%.

“422088 (antisense eT*e[5mC]*eA*eG*eG*dG*d[5mC]*dT*dG*dG*dT*dT*dT*dT*dG*eG*eA*eG*eG*eA) [compound 422088]” was tested, and the “% Inhibition (human Factor 7 mRNA levels)” value [1] was 8%.

“422240 (antisense eA*eG*dA*d[5mC]*dA*dA*dT*dG*dG*dT*d[5mC]*dA*dG*dG*dG*e[5mC]*eT*eG*eG*eT) [compound 422240]” was tested, and the “% Inhibition (human Factor 7 mRNA levels)” value [1] was 66%.

“407632 (antisense eT*e[5mC]*e[5mC]*eG*eT*dT*d[5mC]*dG*dG*dG*d[5mC]*dA*dG*dG*d[5mC]*eA*eG*eA*eG*eG) [compound 407632]” was tested, and the “% Inhibition” value [3] was 46%.

“407902 (antisense e[5mC]*eA*e[5mC]*e[5mC]*e[5mC]*dA*dG*dA*dT*dG*dG*dT*dG*dT*dT*eG*eA*eT*e[5mC]*eA) [compound 407902]” was tested, and the “% Inhibition” value [3] was 86%.

With “407640 (antisense eG*e[5mC]*eA*eT*eG*dA*dG*d[5mC]*dT*dT*dT*dT*dG*d[5mC]*dA*eG*e[5mC]*e[5mC]*eA*e[5mC]) [compound 407640]” the “% Inhibition” value [3] was 79%.

With “422238 (antisense eA*e[5mC]*dA*dA*dT*dG*dG*dT*d[5mC]*dA*dG*dG*dG*d[5mC]*dT*eG*eG*eT*eT*eT) [compound 422238]” the “% Inhibition (human Factor 7 mRNA levels)” value [1] was 64%.

With “422274 (antisense eT*eT*dA*d[5mC]*dT*dG*dA*dG*d[5mC]*dG*d[5mC]*dG*dG*dA*dA*eG*eA*eA*eG*eG) [compound 422274]” the “% Inhibition” value (Table 6, 50 nM) was 24%.

“407908 (antisense e[5mC]*e[5mC]*e[5mC]*e[5mC]*eA*dG*d[5mC]*d[5mC]*dG*d[5mC]*dT*dG*dA*d[5mC]*d[5mC]*eA*eA*eT*eG*eA) [compound 407908]” was tested, and the “% Inhibition” value [3] was 47%.

“416558 (antisense eT*eG*eA*e[5mC]*eA*dG*d[5mC]*dA*d[5mC]*dG*dA*dA*dG*d[5mC]*d[5mC]*e[5mC]*eA*eG*eA*eG) [compound 416558]” was tested, and the “% Inhibition” value [4] was 19%.

“422179 (antisense e[5mC]*eA*e[5mC]*d[5mC]*d[5mC]*dG*d[5mC]*d[5mC]*dG*dG*d[5mC]*dT*d[5mC]*dT*dG*d[5mC]*dT*e[5mC]*eA*eT) [compound 422179]” was tested, and the “% Inhibition (human Factor 7 mRNA levels)” value (oligonucleotides targeted to nucleobases 13760 to 13789 of SEQ ID NO: 1 (Table 10)) was 43%.

With “416537 (antisense eT*eG*eA*e[5mC]*e[5mC]*dA*d[5mC]*dT*d[5mC]*dT*dT*d[5mC]*d[5mC]*dG*dA*eG*e[5mC]*eA*eG*e[5mC]) [compound 416537]” the “% Inhibition” value [4] was 55%.

“416545 (antisense eA*eG*eA*eA*eA*d[5mC]*dA*dT*d[5mC]*d[5mC]*d[5mC]*dA*dT*dT*dT*eT*e[5mC]*e[5mC]*e[5mC]*eA) [compound 416545]” was tested, and the “% Inhibition” value [4] was 8%.

In the case of “407924 (antisense eG*eA*eT*eT*eT*dG*dG*dT*dG*d[5mC]*d[5mC]*dA*dG*dG*dA*e[5mC]*eA*eG*eT*eT) [compound 407924]”, the “% Inhibition” value [3] is reported as 68%.

In the case of “422213 (antisense eT*e[5mC]*eT*dG*d[5mC]*dA*dG*dG*dA*dG*d[5mC]*dG*dG*d[5mC]*d[5mC]*dT*dA*eA*eA*eT) [compound 422213]”, the “% Inhibition of human Factor 7 mRNA levels” value is reported as 67%.

For “422203 (antisense e[5mC]*eA*eG*d[5mC]*d[5mC]*dT*dG*dA*dG*dG*d[5mC]*d[5mC]*dA*dG*d[5mC]*dA*dG*eA*eT*e[5mC]) [compound 422203]”, the “% Inhibition (human Factor 7 mRNA levels)” value [2] was 52%.
